Values quoted from earlier work as cited in US6132766A, “Multivesicular liposomes with controlled release of encapsulated biologically active substances” (priority 1998, dated 2000).

How the values were obtained:
[1] = unencapsulated drug; about
[2] = system: strains of both gram negative and gram positive bacteria; conditions: background statement

NCC[C@H](O)C(=O)N[C@@H]1C[C@H](N)[C@@H](O[C@H]2O[C@H](CN)[C@@H](O)[C@H](O)[C@H]2O)[C@H](O)[C@H]1O[C@H]1O[C@H](CO)[C@@H](O)[C@H](N)[C@H]1O [amikacin]
serum half-life [1]: two to three | activity against strains of both gram negative and gram positive bacteria [2]: clinically significant activity
